Values joined by “and” are separate entries in the source; they are usually repeats but may differ in a detail not shown here. Equal values may be shown once.
What was measured:
[1] = system: dextran sulfate sodium (DSS)-induced colitis in mice; test: mouse dextran sulfate sodium (DSS) model of acute ulcerative colitis; type: in vivo, mice (Swiss Webster); settings: for restoration of colon length (in words): DSS-induced colitis in mice, oral administration; on Colon Content Score (0-3): key: 0=normal, no blood observed; 1=semi-solid stool, may be slightly blood tinged; 2=semi-solid to fluid stool with definite evidence of blood; 3=bloody fluid or no content, (include animals with no observable distal content in this category)
[2] = viscosity (flow property) and taste assessment; type: physicochemical
Description: Properties of provided compounds and compositions can be readily tested, including using a number of methods widely known and practiced in the art, in accordance with the present disclosure. For example, viscosity and/or taste of provided compounds can be readily tested. In some embodiments, viscosity was assessed by testing whether a provided compound could readily flow out of a vial or be swirled. In some embodiments, viscosity was assessed by testing whether a provided compound could be administered by direct drinking by a subject. In some embodiments, viscosity can be measured quantitatively or qualitatively by methods and instruments as known and practiced in the art. In some embodiments, taste was assessed by testing whether a provided compound could be administered by direct drinking by a subject.

[3] = CsA (75 mg/kg PO QD) vs. Compound I-1 (2 g/kg PO BID)
[4] = Naïve vs. Compound I-1 (2 g/kg PO BID)
[5] = Vehicle vs. Compound I-1 (2 g/kg PO BID)
[6] = individual animals, necropsy day 7, 3% DSS, Compound I-1 2 g/kg PO, BID (d0-6)

Row | SMILES | Mean Diff., Tukey's multiple comparisons test (colon length, FIG. 2) [1, 3] | Significant? Tukey's multiple comparisons test (colon length, FIG. 2) [1, 3] | restoration of colon length (in words) [1] | restoration of colon length (in words) ([1]; listed as compound I-1) | Mean Diff., Tukey's multiple comparisons test (colon length, FIG. 2) [1, 4] | Significant? Tukey's multiple comparisons test (colon length, FIG. 2) [1, 4] | Mean Diff., Tukey's multiple comparisons test (colon length, FIG. 2) [1, 5] | Significant? Tukey's multiple comparisons test (colon length, FIG. 2) [1, 5] | Colon Content Score (0-3) [1, 6] | Colon Length [1, 6] | Colon Weight:Length [1, 6] | Colon Wet Wt [1, 6] | flow properties and taste for formulation [2] | viscosity compared with glycerol [2]
1 | CCCC(=O)OCC(COC(=O)CCC(=O)OCC(COC(=O)CCC)OC(=O)CCC)OC(=O)CCC (stereo not drawn) [Compound I-1] | 0.65 | No | significantly restore colon length | effectively restored colon length | 1.85 | Yes | −1.05 | Yes | 1 (8×) and 2 (2×) | 8.00 cm (3×) and 8.25 cm and 6.25 cm (2×) and 8.50 cm and 7.00 cm (2×) and 6.75 cm | 0.046 g/cm and 0.039 g/cm and 0.043 g/cm and 0.063 g/cm and 0.042 g/cm and 0.054 g/cm and 0.034 g/cm and 0.047 g/cm and 0.056 g/cm and 0.048 g/cm | 0.369 g and 0.320 g and 0.343 g and 0.391 g and 0.332 g (2×) and 0.339 g and 0.291 g and 0.390 g and 0.324 g | surprisingly good flow properties and taste | lower viscosity than glycerol
2 | CCCC(=O)OCC(COC(=O)CCC)OC(=O)CCC(=O)OC(COC(=O)CCC)COC(=O)CCC [Compound I-2] |  |  |  |  |  |  |  |  |  |  |  |  | surprisingly good flow properties and taste | 

Reference: patent US20200369594A1, “COMPOUNDS COMPRISING SHORT-CHAIN FATTY ACID MOIETIES AND COMPOSITIONS AND METHODS THEREOF” (priority 2018, published 2020)
